One experiment relates to E. coli ATCC 25922. Nature of the experiment: MIC assay (CLSI broth microdilution), AECO001. In kind it is cell-based. Particulars: AECO001 is ATCC25922 (E. coli), Mueller Hinton Broth, 35 C, 20 hours; for MIC: Escherichia coli. On the procedure:
(§1) Minimum inhibitory concentrations (MIC) were determined by reference Clinical and Laboratory Standards Institute (CLSI) broth microdilution methods per M7-A7 [2006]. Quality control ranges utilizing E. coli ATCC 25922, P. aeruginosa ATCC 27853 and S. aureus ATCC 29213, and interpretive criteria for comparator agents were as published in CLSI M100-S17 [2007]. Briefly, serial two-fold dilutions of the test compounds were prepared at 2× concentration in Mueller Hinton Broth. The compound dilutions were mixed in 96-well assay plates in a 1:1 ratio with bacterial inoculum. The inoculum was prepared by suspension of a colony from an agar plate that was prepared the previous day. Bacteria were suspended in sterile saline and added to each assay plate to obtain a final concentration of 5×10^5 CFU/mL. The plates were incubated at 35 C for 20 hours in ambient air.
(Dilution methods test growth across graded concentrations, often in twofold steps.)

For another experiment, the system named is P. aeruginosa ATCC 27853. The experiment can be described thus: MIC assay (CLSI broth microdilution), APAE001. The settings on record: APAE001 is ATCC27853 (P. aeruginosa), Mueller Hinton Broth, 35 C, 20 hours; for MIC: Pseudomonas aeruginosa. In kind it is cell-based. On the procedure: as §1

Converted amounts (≈) assume the structure as drawn.

In the case of “3′,4′,3′″,4′″-tetra-deoxy-1-(3-amino-propionyl)-neomycin [Example 14/Compound 4]”, the “MIC AECO001” value against E. coli ATCC 25922 is on record as “B (MIC's of greater than 1.0 μg/mL to 16.0 μg/mL = B)”. Also, in the experiment with P. aeruginosa ATCC 27853, the “MIC APAE001” value is “B (MIC's of greater than 1.0 μg/mL to 16.0 μg/mL = B)”.

Turning to `NCC[C@H](O)C(=O)N[C@@H]1C[C@H](N)[C@@H](O[C@H]2O[C@H](CO)CC[C@H]2N)[C@H](O[C@@H]2O[C@H](CO)[C@@H](O[C@H]3O[C@@H](CN)CC[C@H]3N)[C@H]2O)[C@H]1O` [Example 1/Compound 16, 3′,4′,3′″,4′″-tetradeoxy-1-(4-amino-2(S)-hydroxy-butyryl)-paromomycin], the values for the MIC in the experiment on E. coli ATCC 25922 and with P. aeruginosa ATCC 27853 were 1 to 16 µg/mL (≈ 1.53 to 24.5 µM) and > 16 µg/mL, respectively.

`NC[C@H]1CC[C@@H](N)[C@@H](O[C@H]2[C@@H](O)[C@H](O[C@@H]3[C@@H](O)[C@H](N)C[C@H](N)[C@H]3O[C@H]3O[C@H](CO)CC[C@H]3N)O[C@@H]2CO)O1` [Example 2/Compound 8]: the MIC (in general, the least concentration at which growth counts as inhibited) in the experiment on E. coli ATCC 25922 is 1 to 16 µg/mL (≈ 1.81 to 29 µM); in the experiment with P. aeruginosa ATCC 27853, > 16 µg/mL.

As for `NC[C@@H]1CC[C@@H](N)[C@@H](O[C@H]2[C@H](O[C@@H]3O[C@H](CO)[C@@H](O[C@H]4O[C@@H](CN)CC[C@H]4N)[C@H]3O)[C@@H](O)[C@H](N)C[C@@H]2N)O1` [Example 3/Compound 6, 3′,4′,3′″,4′″-tetra-deoxy-neomycin], the MIC against E. coli ATCC 25922 and against P. aeruginosa ATCC 27853 was ≤ 1 µg/mL each time.

Take `NCC[C@H](O)C(=O)N[C@@H]1C[C@H](N)[C@@H](O[C@H]2O[C@H](CN)CC[C@H]2N)[C@H](O[C@@H]2O[C@H](CO)[C@@H](O[C@H]3O[C@@H](CN)CC[C@H]3N)[C@H]2O)[C@H]1O` [Example 4/Compound 5, 3′,4′,3′″,4′″-tetra-dehydro-1-(4-amino-2(S)-hydroxy-butyryl)-neomycin]: the minimal inhibitory concentration (MIC) was 1 to 16 µg/mL (≈ 1.53 to 24.5 µM) in the experiment with E. coli ATCC 25922 and ≤ 1 µg/mL against P. aeruginosa ATCC 27853.

Turning to `NCC[C@H](O)C(=O)N[C@@H]1C[C@H](N)[C@@H](O[C@H]2O[C@H](CN)C=C[C@H]2N)[C@H](O[C@@H]2O[C@H](CO)[C@@H](O[C@H]3O[C@@H](CN)C=C[C@H]3N)[C@H]2O)[C@H]1O` [Example 5/Compound 7], the minimal inhibitory concentration (MIC) was 1 to 16 µg/mL (≈ 1.54 to 24.7 µM) against E. coli ATCC 25922 and ≤ 1 µg/mL against P. aeruginosa ATCC 27853.

Turning to `NCC[C@H](O)C(=O)N[C@@H]1C[C@H](N)[C@@H](O[C@H]2O[C@H](CN)CC[C@H]2N)[C@H](O[C@@H]2O[C@H](CO)[C@@H](O[C@H]3O[C@H](CN)CC[C@H]3N)[C@H]2O)[C@H]1O` [Example 6/Compound 9], the MIC with E. coli ATCC 25922 and with P. aeruginosa ATCC 27853 was 1 to 16 µg/mL (≈ 1.53 to 24.5 µM) in each case.

In the case of `NCCCS(=O)(=O)N[C@@H]1C[C@H](N)[C@@H](O[C@H]2O[C@H](CN)CC[C@H]2N)[C@H](O[C@@H]2O[C@H](CO)[C@@H](O[C@H]3O[C@@H](CN)CC[C@H]3N)[C@H]2O)[C@H]1O` [Example 7/Compound 4], the MIC in the experiment with E. coli ATCC 25922 was 1 to 16 µg/mL (≈ 1.49 to 23.8 µM); with P. aeruginosa ATCC 27853, ≤ 1 µg/mL.

Regarding `CC(=O)N[C@@H]1C[C@H](N)[C@@H](O[C@H]2O[C@H](CN)CC[C@H]2N)[C@H](O[C@@H]2O[C@H](CO)[C@@H](O[C@H]3O[C@@H](CN)CC[C@H]3N)[C@H]2O)[C@H]1O` [Example 8/Compound 3], the minimum inhibitory concentration (MIC) in the experiment with E. coli ATCC 25922 and in the experiment with P. aeruginosa ATCC 27853 was 1 to 16 µg/mL (≈ 1.69 to 27 µM) throughout.

For `NC[C@@H]1CC[C@@H](N)[C@@H](O[C@H]2[C@H](O[C@@H]3O[C@H](CO)[C@@H](O[C@H]4O[C@@H](CN)CC[C@H]4N)[C@H]3O)[C@@H](O)[C@H](NC(=O)C3(O)CC(N)C3)C[C@@H]2N)O1` (some centres unmarked) [Example 9/Compound 4], the MIC against E. coli ATCC 25922 and with P. aeruginosa ATCC 27853 was ≤ 1 µg/mL each time.

Take `NC[C@@H]1CC[C@@H](N)[C@@H](O[C@H]2[C@H](O[C@@H]3O[C@H](CO)[C@@H](O[C@H]4O[C@@H](CN)CC[C@H]4N)[C@H]3O)[C@@H](O)[C@H](NC(=O)C3(O)CNC3)C[C@@H]2N)O1` [Example 10/Compound 4]: the MIC in the experiment on E. coli ATCC 25922 and against P. aeruginosa ATCC 27853 was ≤ 1 µg/mL throughout.

In the case of `NC[C@@H]1CC[C@@H](N)[C@@H](O[C@H]2[C@H](O[C@@H]3O[C@H](CO)[C@@H](O[C@H]4O[C@@H](CN)CC[C@H]4N)[C@H]3O)[C@@H](O)[C@H](NCCC(N)=O)C[C@@H]2N)O1` [Example 11/Compound 3, 3′,4′,3′″,4′″-tetra-deoxy-1-(3-propionamide)-neomycin], the MIC against E. coli ATCC 25922 and with P. aeruginosa ATCC 27853 was 1 to 16 µg/mL (≈ 1.61 to 25.7 µM) in each case.

Regarding `NCC(O)CN[C@@H]1C[C@H](N)[C@@H](O[C@H]2O[C@H](CN)CC[C@H]2N)[C@H](O[C@@H]2O[C@H](CO)[C@@H](O[C@H]3O[C@@H](CN)CC[C@H]3N)[C@H]2O)[C@H]1O` (some centres unmarked) [Example 12/Compound 3, 3′,4′,3′″,4′″-tetra-deoxy-1-(2-hydroxy-3-amino-propyl)-neomycin], the MIC was 1 to 16 µg/mL (≈ 1.6 to 25.7 µM) in the experiment on E. coli ATCC 25922 and ≤ 1 µg/mL in the experiment with P. aeruginosa ATCC 27853.

On to `NC[C@@H]1CC[C@@H](N)[C@@H](O[C@H]2[C@H](O[C@@H]3O[C@H](CO)[C@@H](O[C@H]4O[C@@H](CN)CC[C@H]4N)[C@H]3O)[C@@H](O)[C@H](NC(=O)[C@@H](O)CN)C[C@@H]2N)O1` [Example 13/Compound 4, 3′,4′,3′″,4′″-tetra-deoxy-1-(2(S)-hydroxy-3-amino-propionyl)-neomycin], for which the MIC with E. coli ATCC 25922 is 1 to 16 µg/mL (≈ 1.57 to 25.1 µM); against P. aeruginosa ATCC 27853, ≤ 1 µg/mL.

Turning to `N#CCCC(=O)N[C@@H]1C[C@H](N)[C@@H](O[C@H]2O[C@H](CN)CC[C@H]2N)[C@H](O[C@@H]2O[C@H](CO)[C@@H](O[C@H]3O[C@@H](CN)CC[C@H]3N)[C@H]2O)[C@H]1O` [Example 14/Compound 3, 3′,4′,3′″,4′″-tetra-deoxy-1-(3-cyano-propionyl)-neomycin], the MIC in the experiment with E. coli ATCC 25922 was 1 to 16 µg/mL (≈ 1.58 to 25.3 µM); with P. aeruginosa ATCC 27853 it was > 16 µg/mL.

`NC[C@@H]1CC[C@@H](N)[C@@H](O[C@H]2[C@H](O[C@@H]3O[C@H](CO)[C@@H](O[C@H]4O[C@@H](CN)CC[C@H]4N)[C@H]3O)[C@@H](O)[C@H](NCCO)C[C@@H]2N)O1` [Example 15/Compound 3, 3′,4′,3′″,4′″-tetra-deoxy-1-(2-hydroxyethyl)-neomycin]: the minimal inhibitory concentration (MIC) in the experiment with E. coli ATCC 25922 and against P. aeruginosa ATCC 27853 was 1 to 16 µg/mL (≈ 1.68 to 26.9 µM) each time.

As for `NC[C@@H]1CC[C@@H](N)[C@@H](O[C@H]2[C@H](O[C@@H]3O[C@H](CO)[C@@H](O[C@H]4O[C@@H](CN)CC[C@H]4N)[C@H]3O)[C@@H](O)[C@H](NCc3cccc(O)c3)C[C@@H]2N)O1` [Example 16/Compound 3, 3′,4′,3′″,4′″-tetra-deoxy-1-(3-hydroxybenzyl)-neomycin], the minimum inhibitory concentration (MIC) against E. coli ATCC 25922 and in the experiment with P. aeruginosa ATCC 27853 was 1 to 16 µg/mL (≈ 1.52 to 24.4 µM) each time.

Consider `N=C(N)NCC[C@H](O)C(=O)N[C@@H]1C[C@H](N)[C@@H](O[C@H]2O[C@H](CN)CC[C@H]2N)[C@H](O[C@@H]2O[C@H](CO)[C@@H](O[C@H]3O[C@@H](CN)CC[C@H]3N)[C@H]2O)[C@H]1O` [Example 17/Compound 4, 3′,4′,3′″,4′″-tetra-deoxy-1-(2(S)-hydroxy-4-guanidino-butyryl)-neomycin], for which the MIC against E. coli ATCC 25922 is 1 to 16 µg/mL (≈ 1.44 to 23.1 µM); against P. aeruginosa ATCC 27853 it was ≤ 1 µg/mL.

As for `NC[C@@H]1CC[C@@H](N)[C@@H](O[C@H]2[C@H](O[C@@H]3O[C@H](CO)[C@@H](O[C@H]4O[C@@H](CN)CC[C@H]4N)[C@H]3O)[C@@H](O)[C@H](NCC(O)CO)C[C@@H]2N)O1` (some centres unmarked) [Example 18/Compound 3, 3′,4′,3′″,4′″-tetra-deoxy-1-(2,3-bis-hydroxy-propyl)-neomycin], the MIC in the experiment on E. coli ATCC 25922 was 1 to 16 µg/mL (≈ 1.6 to 25.6 µM); in the experiment with P. aeruginosa ATCC 27853, ≤ 1 µg/mL.

For the molecule `NCC(=O)N[C@@H]1C[C@H](N)[C@@H](O[C@H]2O[C@H](CN)CC[C@H]2N)[C@H](O[C@@H]2O[C@H](CO)[C@@H](O[C@H]3O[C@@H](CN)CC[C@H]3N)[C@H]2O)[C@H]1O` [Example 19/Compound 3, 3′,4′,3′″,4′″-tetra-deoxy-1-(2-aminoacetyl)-neomycin], the MIC with E. coli ATCC 25922 and in the experiment with P. aeruginosa ATCC 27853 was 1 to 16 µg/mL (≈ 1.65 to 26.3 µM) in each case.

Take `NC[C@@H]1CC[C@@H](N)[C@@H](O[C@H]2[C@H](O[C@@H]3O[C@H](CO)[C@@H](O[C@H]4O[C@@H](CN)CC[C@H]4N)[C@H]3O)[C@@H](O)[C@H](NC(=O)[C@@H](N)CO)C[C@@H]2N)O1` [Example 20/Compound 3, 3′,4′,3′″,4′″-tetra-deoxy-1-(2(S)-amino-3-hydroxy-propionyl)-neomycin]: the minimum inhibitory concentration (MIC) in the experiment with E. coli ATCC 25922 and in the experiment with P. aeruginosa ATCC 27853 was 1 to 16 µg/mL (≈ 1.57 to 25.1 µM) throughout.

As to `NC[C@@H]1CC[C@@H](N)[C@@H](O[C@H]2[C@H](O[C@@H]3O[C@H](CO)[C@@H](O[C@H]4O[C@@H](CN)CC[C@H]4N)[C@H]3O)[C@@H](O)[C@H](NC(CO)CO)C[C@@H]2N)O1` [Example 21/Compound 3, 3′,4′,3′″,4′″-tetra-deoxy-1-(2-hydroxy-1-hydroxymethyl-ethyl)-neomycin], the MIC in the experiment on E. coli ATCC 25922 and against P. aeruginosa ATCC 27853 was 1 to 16 µg/mL (≈ 1.6 to 25.6 µM) throughout.

Regarding `NCCN(O)C(=O)N[C@@H]1C[C@H](N)[C@@H](O[C@H]2O[C@H](CN)CC[C@H]2N)[C@H](O[C@@H]2O[C@H](CO)[C@@H](O[C@H]3O[C@@H](CN)CC[C@H]3N)[C@H]2O)[C@H]1O` [Example 22/Compound 6], the MIC in the experiment on E. coli ATCC 25922 and in the experiment on P. aeruginosa ATCC 27853 was ≤ 1 µg/mL throughout.

`NCCS(=O)(=O)N[C@@H]1C[C@H](N)[C@@H](O[C@H]2O[C@H](CN)CC[C@H]2N)[C@H](O[C@@H]2O[C@H](CO)[C@@H](O[C@H]3O[C@@H](CN)CC[C@H]3N)[C@H]2O)[C@H]1O` [Example 23/Compound 4, 3′,4′,3′″,4′″-tetra-deoxy-1-(2-amino-ethylsulfonamide)-neomycin] came in with a minimum inhibitory concentration (MIC) with E. coli ATCC 25922 of 1 to 16 µg/mL (≈ 1.52 to 24.3 µM).

The record behind these values is patent US8399419B2, “Antibacterial aminoglycoside analogs” (Achaogen, Inc., priority 2008, dated 2013).
